The source of these data is patent US11369665B2, “Anti-inflammatory peptides and composition comprising the same” (GemVax & KAEL Co., Ltd., priority 2012, dated 2022).

One test has as its system nitric oxide (NO). Nature of the test: NO level analysis (Griess reagent) in LPS-stimulated Raw 264.7 cells. In kind it is cell-based. The protocol: (§1) Raw 264.7 macrophage cell (KCBL, 40071) from Korea Cell Bank was maintained in Dulbecco's modified Eagle's medium (DMEM; PAA, Austria) containing 10% fetal bovine serum (FBS; GIBCO®), 100 unit/mL of streptomycin, and penicillin (Gibco Laboratories) at 37° C. with 5% CO2. Raw 264.7 cells were seeded into a 96-well plate at a density of 1×10^6 cells/mL and incubated overnight.
[…] After 30 min incubation of cells with the peptide 50 μL of LPS (to a final concentration of 1 μg/mL) was added, and cells were incubated for additional 24 hr. The experimental sample with the induction of inflammatory response was treated with 1 μg/mL mL lipopolysaccharide (LPS; SIGMA-ALDRICH®, USA) and control sample was treated with phosphate buffered saline (PBS; pH 7.2). The supernatant samples from each condition was collected in eppendorf tubes and subjected to further analysis.
The level of nitric oxide (NO) was measured in Raw 264.7 cell (1×10^6 cell/ml) using Griess reagent system (PROMEGA CORPORATION®, USA). Culture medium of 50 μl was added to a 96-well plate and Griess reagent I (NED) solution and Griess reagent II (Sulfanilamide solution) are added in the same amount. After 10 min incubation of cells with the reagents, the optical density at 540 nm was measured within 30 min using a microplate reader (MOLECULAR DEVICES®, USA). The concentration of NO was calculated by using a standard curve (0˜100 μM) of sodium nitrite.

In the next test the test system is HMGB1, TNF-α and COX. Nature of the test: Western blot of pro-inflammatory cytokine expression. Conditions: cells treated with both LPS and PEP-1. In kind it is cell-based. The protocol:
as §1
(§2) On the following day, the medium was replaced with fresh medium and 5 μg/mL of peptide (obtained as described in Experiment example 1) was added to the cells. After 30 min incubation of cells with the peptide 50 μL of LPS (to a final concentration of 1 μg/mL) was added, and cells were incubated for additional 24 hr. The experimental sample with the induction of inflammatory response was treated with 1 μg/mL mL lipopolysaccharide (LPS; SIGMA-ALDRICH®, USA) and control sample was treated with phosphate buffered saline (PBS; pH 7.2). The supernatant samples from each condition was collected in eppendorf tubes and subjected to further analysis.
Protein expression level was determined by Western blot analysis. […] The membrane was incubated with ECL (enhanced chemiluminoesence) solution ([…]®), exposed to X-ray, and the level of protein expression was analyzed according to the exposure level shown on the X-ray film. […]
For orientation: A western blot detects proteins with antibodies after separation by electrophoresis.

Another test relates to TNF-α. Description: Western blot of expression level, LPS-stimulated cells. In kind it is cell-based. Conditions: LPS 1 μg/ml, PEP 1 5 μg/ml. The protocol:
as §1, §2
(§3) Protein expression level was determined by Western blot analysis. Cells grown in PEP-1 containing medium were washed with PBS, treated with 0.05% trypsin-EDTA, and collected by centrifugation. The collected cells were dissolved in an appropriate volume of lysis buffer. Intracellular debris was pelleted by centrifugation, and equal amount of protein from each sample was separated by SDS-polyacrylamide gel electrophoresis. The separated protein was transferred to nitrocellulose membrane (Schleicherand Schuell, Keene, N.H., USA), then was tested for the antibody specific for each protein. The membrane was incubated with ECL (enhanced chemiluminoesence) solution ([…]®), exposed to X-ray, and the level of protein expression was analyzed according to the exposure level shown on the X-ray film.

The subject of a further test is COX-2. The description is as above. In kind it is cell-based. The following applies: LPS 1 μg/ml, PEP 1 5 μg/ml. The protocol: as §1, §2, §3
In another test the test system is HMGB1. Described as above. In kind it is cell-based. The following applies: LPS 1 μg/ml, PEP 1 5 μg/ml. The protocol: as §1, §2, §3
The next test has as its system IL-6. Description: IL-6 secretion measurement by ELISA in LPS-challenged RAW 264.7 cells. Format: cell-based. The protocol:
as §1, §2
To investigate the effect of PEP-1 on inhibiting proinflammatory cytokine production RAW 264.7 cell were pre-treated with PEP 1 at a concentration of 5 μg/mL challenged with LPS at a concentration of 1 μg/mL, and cells were further incubated for 24 hr. The supernatant samples containing cell culture medium was collected and analyzed for the cytokine levels using ELISA kits (eBioscience, San Diego).
96 wells plates were coated with 100 μL of capture antibodies (diluted in coating buffer to the concentration recommended by manufacturer's protocol) overnight at 4° C. Then, after washing the plates 5 times, 200 μL of assay diluents was added to each well and incubated for 1 hr at room temperature for blocking. […]
Following incubation with the secondary antibody, the plate was washed five times and incubated with 100 μL of avidin-HRP (BD Bioscience) for 30 min at room temperature. […] The reaction was stopped by adding 50 μl of 2N H2SO4 in each well The optical density at 450 nm was measured using a microplate reader. […]

The subject of the next test is reactive oxygen species. Description: Reactive oxygen species by DCF-DA staining in neural stem cells. Format: cell-based, rat. Conditions: 20 μM amyloid-β protein, PEP-1 1 μM, 10 μM, 50 μM. How it is done: The mechanism of action of PEP-1's protective effect on apoptosis by amyloid-β protein was investigated. First, it was investigated whether PEP-1 is capable of minimizing the oxidative damage caused by amyloid-β protein. Change in generation of reactive oxygen species after treatment with amyloid-β protein and PEP-1 was observed by using DCF-DA staining (Molecular Probes, Eugene, Oreg.). In the group in which reactive oxygen species increased due to 20 μM of amyloid-β protein, the increased reactive oxygen species decreased by PEP-1 treatment (1 μM, 10 μM, 50 μM) (Refer to FIG. 13).

A further test deals with neural stem cells. Nature of the test: Co-treatment amyloid-β and PEP-1: cell mobility (migration). In kind it is cell-based, rat. The following applies: 20 μM amyloid-β protein. The source says: Cell mobility is a vital matter due to the nature of neural stem cell. […] (Refer to FIG. 11).
Setting [1] is: LPS 1 μg/mL, PEP 1 0.5 μg/mL, 24 hr.
Where [2] appears, read: RAW 264.7 cells, LPS 1 μg/ml, PEP 1 5 μg/ml, 24 hr.

Turning to EARPALLTSRLRFIPK [PEP-1], in the test with nitric oxide (NO) (setting [1]), the “Decreased NO Expression Level (%)” value was determined as 65% and the “NO Expression Level of control (%)” value is 35%. Further, in the test on nitric oxide (NO) (co-treatment with LPS), the “NO level reduced to % of the control” value is reported as 65%. The “decrease of pro-inflammatory cytokine levels” value in the test with HMGB1, TNF-α and COX is “more than 70%”. The “TNF-α Cytokine Expression Level (band intensity) % of control” value in the test with TNF-α is on record as 25%. The “COX-2 Cytokine Expression Level (band intensity) % of control” value in the test with COX-2 turned out to be 22%. For the same sequence, in the test with HMGB1, the “HMGB1 Cytokine Expression Level (band intensity) % of control” value is reported as 30%. Further, in the test with IL-6 (setting [2]), the “cytokine IL-6 production % of control” value was found to be 28% and the “cytokine IL-6 production inhibition %” value came out at 72%. Besides, the “decrease of proinflammatory cytokine secretion (IL-6)” value in the test on IL-6 (co-treatment with LPS) was “more than 70%”. In addition, in the test with reactive oxygen species, the “reactive oxygen species increased by amyloid-β” value is reported as “decreased”. For the same sequence, the “cell mobility decreased by amyloid-β” value with neural stem cells (FIG. 11) was “restored”. The “cell mobility compared to control” value in the test with neural stem cells (PEP-1 10 μM) is on record as “increased even more”.
